Consider one compound from EP0557876A1, “Use of xanthine derivatives for the treatment of muscle damage subsequent to complete interruption of blood circulation” (HOECHST AKTIENGESELLSCHAFT, priority 1992, dated 1993).

Marks after values point to notes of the source that are not given here.

For this experiment, the system named is Muskelfasern. In words: Muscle fibre diameter after 3 h tourniquet interruption of blood circulation in a hind limb and subsequent reperfusion. The class given is in vivo, Cercopithecus pygerythrus. Also on record: durchschnittliche Durchmesser Muskelfaser Typ1 / durchschnittliche Durchmesser Muskelfaser Typ2a: unit not given here. As to the method: Zwei Gruppen von acht erwachsenen, männlichen südafrikanischen Meerkatzen (Cercopithecus pygerythrus) werden untersucht. Die Anasthäsie der Tiere erfolgt intramuskulär mit 15 mg/kg Ketamin (Warner Lambert) und wird intravenös mit Thiopenton Natrium (25 mg/kg, May und Baker) aufrecht erhalten. Eine hintere Extremität wird durch eine pneumatische Abschnürbinde und eine Esmarch Bandage blutleer gemacht. Die Unterbrechung der Blutzirklation wird drei Stunden aufrechterhalten, dann wird die Unterbrechung beendet und die Tiere können aus der Betäubung aufwachen. Die Entnahme der Muskelgewebeproben erfolgt unter Betäubung (15 mg/kg Ketamin).
20 mg/kg Verbindung 1 wird intravenös über 30 Minuten den Tieren appliziert bevor die Unterbrechung der Blutzirkulation erfolgt.
Das entnommene Muskelgewebe wird sofort in Isopentan bei -183° C eingefroren. Die Präparation des Muskelgewebes erfolgt wie bei Dubowitz (Dubowitz et al. Muscle Biopsy A practical Approach, London, Bailliere Tindall, 1985, S. 82 - 128) beschrieben. Mikroskopische Schnitte werden mit Muskelfaser-ATPase für 30 Minuten bei pH 9,4 gefärbt, eingebettet und im Lichtmikroskop untersucht. Die Durchmesser von wenigstens 200 Muskelfasern werden mit einem computerisierten Video-Image-Analysator ausgewertet.
Der durchschnittliche Durchmesser jedes Muskelfasertyps wird in Tabelle 1 beschrieben.

[1] abbreviates: Unterbrechung der Blutzirkulation, lower part of Tabelle 1 (12/18/24 h series), 20 mg/kg i.v.
The mark [2] stands for this setting: Unterbrechung der Blutzirkulation, upper part of Tabelle 1 (3/6 h series), 20 mg/kg i.v.
The mark [3] stands for this setting: Vor Unterbrechung der Blutzirkulation, lower part of Tabelle 1 (12/18/24 h series), 20 mg/kg i.v. over 30 min before interruption.
Where [4] appears, read: Vor Unterbrechung der Blutzirkulation, upper part of Tabelle 1 (3/6 h series), 20 mg/kg i.v. over 30 min before interruption.

For the compound `CCOCn1cnc2c1c(=O)n(CCCCC(C)(C)O)c(=O)n2C` [Verbindung 1, 7-Ethoxymethyl-1-(5-hydroxy-5-methylhexyl)-3-methylxanthin], the “durchschnittliche Durchmesser Muskelfaser Typ1” value is listed as 39,89* (Nach 3 Stunden, 20 mg/kg i.v.); 43,42* (Nach 6 Stunden, 20 mg/kg i.v.); 35,79 (Nach 12 Stunden, 20 mg/kg i.v.); 34,68 (Nach 18 Stunden, 20 mg/kg i.v.); 33,00 (Nach 24 Stunden, 20 mg/kg i.v.); 33,21 under setting [1]. The “durchschnittliche Durchmesser Muskelfaser Typ1” value is given as 36,28 under setting [2], 36,50 under setting [3] and 36,50 under setting [4]. Moreover, the “durchschnittliche Durchmesser Muskelfaser Typ2a” value is, setting by setting: (Nach 3 Stunden, 20 mg/kg i.v.) 48,55*; (Nach 6 Stunden, 20 mg/kg i.v.) 53,37*; (Nach 12 Stunden, 20 mg/kg i.v.) 42,28*; (Nach 18 Stunden, 20 mg/kg i.v.) 41,31; (Nach 24 Stunden, 20 mg/kg i.v.) 40,24; under setting [1], 38,69. In addition, the “durchschnittliche Durchmesser Muskelfaser Typ2a” value under setting [2] is listed as 44,75, the “durchschnittliche Durchmesser Muskelfaser Typ2a” value under setting [3] is 45,09 and the “durchschnittliche Durchmesser Muskelfaser Typ2a” value under setting [4] is given as 45,09. For the same compound, where the note is “nach 18 - 24 Stunden Wiederdurchblutung, 20 mg/kg i.v.”, the “Schwellung der Muskelfasern vom Typ 1 und 2a” value was “signifikant verringerte Schwellung”.
